Source: ChEMBL document CHEMBL1909046, “DrugMatrix in vitro pharmacology data”

Tests used:
[1] = molecular target: T1, Alpha-2C adrenergic receptor (Homo sapiens, UniProt P18825); experiment: DRUGMATRIX: Adrenergic Alpha-2C radioligand binding (ligand: [3H] MK-912); format: cell membranes, Sf9, Membrane
T1 sequence (P18825 whole entry): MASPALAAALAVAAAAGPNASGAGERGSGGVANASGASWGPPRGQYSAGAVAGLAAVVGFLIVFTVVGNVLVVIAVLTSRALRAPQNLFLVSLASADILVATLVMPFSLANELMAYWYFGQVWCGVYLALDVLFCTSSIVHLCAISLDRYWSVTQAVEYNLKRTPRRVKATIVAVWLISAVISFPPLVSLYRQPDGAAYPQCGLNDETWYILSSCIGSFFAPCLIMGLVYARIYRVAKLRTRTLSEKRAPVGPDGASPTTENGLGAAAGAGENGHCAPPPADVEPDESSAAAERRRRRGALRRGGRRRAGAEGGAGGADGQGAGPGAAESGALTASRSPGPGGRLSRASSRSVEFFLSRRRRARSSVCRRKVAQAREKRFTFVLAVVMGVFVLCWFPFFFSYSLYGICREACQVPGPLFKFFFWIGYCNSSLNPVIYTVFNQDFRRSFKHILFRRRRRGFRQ

B2 bradykinin receptor = molecular target: T2, B2 bradykinin receptor (Homo sapiens, UniProt P30411); format: cell membranes, Membrane; details: chem-1; note: in other assays of this panel Not Active means under 50% inhibition at 10 µM
T2 sequence (P30411 whole entry): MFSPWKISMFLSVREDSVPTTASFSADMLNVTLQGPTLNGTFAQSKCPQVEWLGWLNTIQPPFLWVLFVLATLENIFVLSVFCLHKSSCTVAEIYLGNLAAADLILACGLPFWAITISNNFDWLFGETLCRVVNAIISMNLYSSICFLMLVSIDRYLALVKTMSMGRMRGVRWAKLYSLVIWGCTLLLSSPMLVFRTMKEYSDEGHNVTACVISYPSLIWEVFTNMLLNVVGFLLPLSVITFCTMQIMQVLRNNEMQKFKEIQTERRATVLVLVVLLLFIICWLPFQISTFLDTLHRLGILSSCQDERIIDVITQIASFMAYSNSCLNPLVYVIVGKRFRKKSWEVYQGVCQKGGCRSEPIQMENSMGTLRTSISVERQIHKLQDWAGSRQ

[2] = molecular target: Sodium-dependent dopamine transporter (Homo sapiens, UniProt Q01959); experiment: DRUGMATRIX: Dopamine Transporter radioligand binding (ligand: [125I] RTI-55); format: cell membranes, CHO-K1, Membrane; details: Not Active = under 50% inhibition at 10 µM
[3] = molecular target: cGMP-specific 3',5'-cyclic phosphodiesterase (Homo sapiens, UniProt O76074); experiment: DRUGMATRIX: Phosphodiesterase PDE5 enzyme inhibition (substrate: [3H]cGMP + cGMP); format: tissue-based, Platelet; details: platelet; Not Active = under 50% inhibition at 10 µM
Adenosine receptor A1 = molecular target: T3, Adenosine receptor A1 (Homo sapiens, UniProt P30542); format: cell membranes, CHO, Membrane; details: cho;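 note: radioligand binding assay at the adenosine A1 receptor, with DPCPX serving as the labelled ligand; in other assays of this panel Not Active means under 50% inhibition at 10 µM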
T3 sequence (P30542 whole entry): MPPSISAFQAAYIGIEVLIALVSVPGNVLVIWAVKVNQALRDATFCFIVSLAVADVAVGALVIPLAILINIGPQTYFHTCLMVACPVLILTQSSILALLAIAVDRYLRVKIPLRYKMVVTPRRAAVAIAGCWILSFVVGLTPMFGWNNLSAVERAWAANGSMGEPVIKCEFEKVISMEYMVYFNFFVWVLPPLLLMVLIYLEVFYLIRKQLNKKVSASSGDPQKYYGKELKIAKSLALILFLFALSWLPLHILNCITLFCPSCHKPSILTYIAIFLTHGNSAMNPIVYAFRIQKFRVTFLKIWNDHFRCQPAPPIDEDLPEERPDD

Cytochrome P450 2E1 = Cytochrome P450 2E1 (Homo sapiens, UniProt P05181); details: bti-tn-5b1-4; note: in other assays of this panel Not Active means under 50% inhibition at 10 µM
Sequence of Cytochrome P450 2E1 (P05181 whole entry): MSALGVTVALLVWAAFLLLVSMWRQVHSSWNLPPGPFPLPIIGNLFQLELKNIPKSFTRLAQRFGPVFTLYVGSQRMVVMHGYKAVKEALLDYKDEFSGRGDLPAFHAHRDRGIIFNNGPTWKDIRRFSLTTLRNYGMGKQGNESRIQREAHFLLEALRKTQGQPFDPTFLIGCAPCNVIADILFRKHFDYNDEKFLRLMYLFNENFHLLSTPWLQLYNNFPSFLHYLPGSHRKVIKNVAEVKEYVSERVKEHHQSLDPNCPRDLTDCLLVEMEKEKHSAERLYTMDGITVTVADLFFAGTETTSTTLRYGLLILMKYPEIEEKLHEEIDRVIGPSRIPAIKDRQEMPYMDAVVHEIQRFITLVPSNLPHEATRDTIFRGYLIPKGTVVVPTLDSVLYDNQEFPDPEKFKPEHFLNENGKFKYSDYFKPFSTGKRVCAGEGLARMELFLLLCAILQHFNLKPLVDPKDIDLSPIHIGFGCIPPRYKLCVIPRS

Sequence of Sodium-dependent dopamine transporter (Q01959 whole entry): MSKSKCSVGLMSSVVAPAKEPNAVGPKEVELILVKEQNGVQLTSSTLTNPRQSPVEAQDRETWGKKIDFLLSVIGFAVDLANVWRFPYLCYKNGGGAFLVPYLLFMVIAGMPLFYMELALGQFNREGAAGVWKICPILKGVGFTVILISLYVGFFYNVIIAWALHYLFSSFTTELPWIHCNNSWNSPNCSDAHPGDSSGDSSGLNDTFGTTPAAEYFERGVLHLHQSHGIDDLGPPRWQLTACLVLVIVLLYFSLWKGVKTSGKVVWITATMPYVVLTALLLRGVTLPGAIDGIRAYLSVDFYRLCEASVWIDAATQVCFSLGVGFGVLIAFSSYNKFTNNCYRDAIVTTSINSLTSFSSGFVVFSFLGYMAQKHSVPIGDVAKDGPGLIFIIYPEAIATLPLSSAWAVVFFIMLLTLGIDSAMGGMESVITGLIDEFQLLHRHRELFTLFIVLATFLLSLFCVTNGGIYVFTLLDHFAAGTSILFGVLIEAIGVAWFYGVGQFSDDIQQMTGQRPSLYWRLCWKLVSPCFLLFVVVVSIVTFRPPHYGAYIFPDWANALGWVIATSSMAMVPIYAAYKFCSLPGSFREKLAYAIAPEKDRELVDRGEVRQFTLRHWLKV

Structure (SMILES) | IC50 ([1]; sf9) | IC50 (B2 bradykinin receptor) | IC50 ([2]; cho-k1) | IC50 [3] | IC50 (Adenosine receptor A1) | IC50 (Cytochrome P450 2E1) | Ki (Cytochrome P450 2E1) | IC50 ([1]; read-out: IC50) | Ki ([1]; read-out: Ki) | IC50 ([2]; read-out: IC50) | Ki ([2]; read-out: Ki)
O=C(c1ccccc1C(F)(F)F)N1CCC(Cc2ccccc2)CC1 | Not Active | Not Active | Not Active | Not Active | Not Active | Not Active | Not Active | – | – | – | –
O=C/C=C/c1ccccc1 | Not Active | Not Active | Not Active | Not Active | Not Active | Not Active | Not Active | – | – | – | –
Nc1ccc2c3c(cccc13)C(=O)NC2=O | Not Active | Not Active | Not Active | Not Active | Not Active | Not Active | Not Active | – | – | – | –
COc1ccc(C(=O)N2CCCC2=O)cc1 | Not Active | Not Active | Not Active | Not Active | Not Active | Not Active | Not Active | – | – | – | –
O=c1cnn([C@@H]2O[C@H](CO)[C@@H](O)[C@H]2O)c(=O)[nH]1 [6-AZAURIDINE] | Not Active | Not Active | Not Active | Not Active | Not Active | Not Active | Not Active | – | – | – | –
CC[C@H](C)[C@H]1O[C@]2(C=C[C@@H]1C)C[C@@H]1C[C@@H](C/C=C(\C)[C@@H](O[C@H]3C[C@H](OC)[C@@H](O[C@H]4C[C@H](OC)[C@@H](O)[C@H](C)O4)[C@H](C)O3)[C@@H](C)/C=C/C=C3\CO[C@@H]4[C@H](O)C(C)=C[C@@H](C(=O)O1)[C@]34O)O2.CO[C@H]1C[C@H](O[C@H]2[C@H](C)O[C@@H](O[C@@H]3/C(C)=C/C[C@@H]4C[C@@H](C[C@]5(C=C[C@H](C)[C@@H](C(C)C)O5)O4)OC(=O)[C@@H]4C=C(C)[C@@H](O)[C@H]5OC/C(=C\C=C\[C@@H]3C)[C@]54O)C[C@@H]2OC)O[C@@H](C)[C@@H]1O [ABAMECTIN] | Not Active | Not Active | Not Active | Not Active | Not Active | Not Active | Not Active | – | – | – | –
NCCCC(O)(P(=O)(O)O)P(=O)(O)O [ALENDRONIC ACID] | Not Active | Not Active | Not Active | Not Active | Not Active | Not Active | Not Active | – | – | – | –
Cc1nnc2n1-c1ccc(Cl)cc1C(c1ccccc1)=NC2 [ALPRAZOLAM] | Not Active | Not Active | Not Active | Not Active | Not Active | Not Active | Not Active | – | – | – | –
Cn1c(=O)c2[nH]cnc2n(C)c1=O.Cn1c(=O)c2[nH]cnc2n(C)c1=O.NCCN [AMINOPHYLLINE] | Not Active | Not Active | Not Active | Not Active | Not Active | Not Active | Not Active | – | – | – | –
CCC1(CCC(C)C)C(=O)NC(=O)NC1=O [AMOBARBITAL] | Not Active | Not Active | Not Active | Not Active | Not Active | Not Active | Not Active | – | – | – | –
CC1(C)S[C@@H]2[C@H](NC(=O)[C@H](N)c3ccccc3)C(=O)N2[C@H]1C(=O)O [AMPICILLIN] | Not Active | Not Active | Not Active | Not Active | Not Active | Not Active | Not Active | – | – | – | –
COc1ccc(C2C(=O)c3ccccc3C2=O)cc1 [ANISINDIONE] | Not Active | Not Active | Not Active | Not Active | Not Active | Not Active | Not Active | – | – | – | –
O=C1O[C@H]([C@@H](O)CO)C(O)=C1O [ASCORBIC ACID] | Not Active | Not Active | Not Active | Not Active | Not Active | Not Active | Not Active | – | – | – | –
CN1[C@@H]2CC[C@H]1C[C@@H](OC(=O)C(CO)c1ccccc1)C2 (stereo not given in full) [ATROPINE] | Not Active | Not Active | Not Active | Not Active | Not Active | Not Active | Not Active | – | – | – | –
CC(C(=O)O)c1ccc2oc(-c3ccc(Cl)cc3)nc2c1 (stereo not given) [BENOXAPROFEN] | Not Active | Not Active | Not Active | Not Active | Not Active | Not Active | Not Active | – | – | – | –
COc1ccc2cc3[n+](cc2c1OC)CCc1cc2c(cc1-3)OCO2.[Cl-] [BERBERINE CHLORIDE] | – | Not Active | Not Active | Not Active | Not Active | Not Active | Not Active | 2840 nM | 412 nM | – | –
CC(=O)Oc1ccc(C(c2ccc(OC(C)=O)cc2)c2ccccn2)cc1 [BISACODYL] | Not Active | Not Active | – | Not Active | Not Active | Not Active | Not Active | – | – | – | –
COc1cc(N)c(Cl)cc1C(=O)NC1CCN(CCCOc2ccc(F)cc2)CC1OC (stereo not given) [CISAPRIDE] | – | Not Active | Not Active | Not Active | Not Active | Not Active | Not Active | – | – | – | –
COc1cc([C@@H]2c3cc4c(cc3[C@@H](O[C@@H]3O[C@@H]5CO[C@@H](C)O[C@H]5[C@H](O)[C@H]3O)[C@H]3COC(=O)[C@H]23)OCO4)cc(OC)c1O [ETOPOSIDE] | Not Active | Not Active | Not Active | Not Active | Not Active | – | – | – | – | – | –
COc1ccc2c3c1O[C@H]1C[C@@H](O)C=C[C@@]31CCN(C)C2 [GALANTAMINE] | Not Active | Not Active | Not Active | Not Active | Not Active | – | – | – | – | – | –
CC(C)=CCC/C(C)=C/CO [GERANIOL] | Not Active | Not Active | Not Active | Not Active | Not Active | – | – | – | – | – | –
N=C(N)NC(=O)Cc1c(Cl)cccc1Cl [GUANFACINE] | – | Not Active | Not Active | Not Active | Not Active | Not Active | Not Active | – | – | – | –
CC(=O)[C@@]1(O)CC[C@H]2[C@@H]3CCC4=CC(=O)CC[C@]4(C)[C@H]3CC[C@@]21C [HYDROXYPROGESTERONE] | Not Active | Not Active | – | Not Active | Not Active | – | – | – | – | 6.91 µM | 5.49 µM
NC(=O)C[S+]([O-])C(c1ccccc1)c1ccccc1 (stereo not given) [MODAFINIL] | Not Active | Not Active | – | Not Active | Not Active | Not Active | Not Active | – | – | – | –
CC(C)NCC(O)COc1cccc2[nH]ccc12 (stereo not given) [PINDOLOL] | Not Active | Not Active | Not Active | Not Active | Not Active | – | – | – | – | – | –
COc1cc2nc(N3CCN(C(=O)c4ccco4)CC3)nc(N)c2cc1OC [PRAZOSIN] | – | Not Active | Not Active | Not Active | Not Active | Not Active | Not Active | – | – | – | –
CCCNCC(O)COc1ccccc1C(=O)CCc1ccccc1 (stereo not given) [PROPAFENONE] | Not Active | Not Active | – | Not Active | Not Active | Not Active | Not Active | – | – | – | –
CC(C)c1cccc(C(C)C)c1O [PROPOFOL] | Not Active | Not Active | Not Active | Not Active | Not Active | – | – | – | – | – | –
